For experiment [1], the system named is ciliary Gli2 in Shh-EGFP cells. As to the kind of experiment: Quantitative assessment of Hh ligand-dependent Gli2 trafficking. It counts as cell-based. The note with it: 30 μM, 4 hours; for Basal and Shh-N-induced levels of ciliary Gli2: with or without 10% Shh-N-conditioned medium; for basal Gli2 concentrations in the primary cilium: without Shh-N. As for the experimental part:
Shh-EGFP cells were seeded into 24-well plates containing poly-D-lysine-coated 12-mm glass coverslips at a density of 65,000 cells/well and cultured for 24 hours in DMEM containing 10% calf serum, 100 U/mL penicillin, and 0.1 mg/mL streptomycin. The cells were then transferred into DMEM containing 0.5% calf serum and the antibiotics described above for 16 hours to promote primary cilia formation. The cells were next transferred into DMEM containing 0.5% calf serum, antibiotics, and either individual compounds at a 30 μM concentration or 0.3% DMSO. Each compound or vehicle treatment was conducted in the presence or absence of 10% Shh-N-conditioned medium, and the cells were cultured under these conditions for 4 hours. The cells were subsequently fixed in PBS containing 4% paraformaldehyde for 10 minutes at room temperature, washed 3×5 minutes in PBS containing 50 mM glycine, permeabilized in PBS containing 0.3% Triton X-100 […], and then blocked overnight at 4° C. in PBS containing 5% normal donkey serum, 0.1% Triton X-100, and 0.05% sodium azide. After blocking was complete, the coverslips were incubated in blocking buffer containing rabbit polyclonal anti-Arl13b antibody (1:3000 dilution), goat polyclonal anti-Gli2 antibody (1:50 dilution; R & D Systems, AF3635), and mouse monoclonal anti-γ-tubulin (1:200 dilution; Sigma-Aldrich, T5326) for 90 minutes at room temperature. The cells were then washed 4×5 minutes with PBS containing 0.1% Triton X-100 and incubated in blocking buffer containing DyLight 488-conjugated donkey polyclonal anti-goat IgG antibody (3 μg/mL; Jackson ImmunoResearch, 705-485-147), DyLight 594-conjugated donkey polyclonal […] IgG antibody (3 μg/mL; Jackson ImmunoResearch, 715-515-151), and DyLight 649-conjugated donkey polyclonal […] IgG antibody (3 μg/mL; Jackson ImmunoResearch, 711-495-152) for 60 minutes. Following, this secondary antibody incubation, nuclei were stained by incubating the cells 2×10 minutes with PBS containing 0.1% Triton X-100 and 0.5 μg/mL DAPI and washing them 2×5 minutes with PBS. The coverslips were subsequently mounted onto slides using Prolong Gold Antifade Reagent (Invitrogen) and imaged using a Plan Apochromat 63×/1.4 NA oil immersion objective on a Zeiss Axio1mager Z1 upright microscope equipped with an LSM700 laser scanning confocal head. Ciliary Gli2 levels were quantified by determining total pixel intensity within a 0.69 μm-diameter circle at the distal tip of the axoneme and subtracting background fluorescence in an adjacent region of equivalent size. At least 25 cilia were analyzed to determine the average ciliary Gli2 level for each experimental condition.

The target in experiment [2] is T1, cytoplasmic dynein purified from bovine brain (Bos taurus, UniProt A0A3Q1NEU9).
T1 construct: Cytoplasmic dynein was purified from bovine brain tissue; from tissue; host or cells: bovine brain
As to the kind of experiment: Microtubule surface gliding assay, dynein. It counts as biochemical. The note with it: for dynein-dependent microtubule movement (gliding velocity): 100 μM; for IC50: dynein-dependent microtubule gliding in vitro, read-out: IC50 of microtubule gliding inhibition. The procedure: To more directly examine whether cytoplasmic dynein is the direct target of the ciliobrevins, we evaluated their effects on dynein-dependent microtubule gliding in vitro. Cytoplasmic dynein was purified from bovine brain tissue, adsorbed onto glass slides, and then incubated with fluorescently labeled microtubules and ATP in the presence or absence of these compounds. We then imaged and quantified the resulting microtubule gliding velocities by epifluorescence microscopy.
Cytoplasmic dynein was purified from bovine brains as described by Bingham et al. [Methods Enzymol. 298, 171 (1998)]. K560, a 560-amino acid N-terminal fragment of human conventional kinesin (kinesin-1) with a C-terminal His-tag, was expressed in bacteria and purified as described by Woehlke et al., [Cell 90, 207 (1997)]. Motility assays were performed on a Zeiss Axiovert 200M wide-field microscope equipped with a Zeiss 100×/1.45 NA α-Plan-Fluar objective. Data were captured with an EM-CCD camera (iXon DU-897, Andor Technology) with a 0.3-second exposure time and frame rate of 0.5 second^−1. Microtubule gliding assays were performed as described by Kapoor and Mitchison [Proc. Natl. Acad. Sci. U.S.A. 96, 9106 (1999)] with some modifications. An approximately 6 μL flow chamber was filled with motor protein (100 μg/mL dynein or 50 μg/mL K560) in motor dilution buffer (80 mM Pipes, 1 mM EGTA, 2 mM MgCl2, 2 mM DTT, 50 μM ATP, pH 6.8 with KOH). After a 2-minute incubation, excess protein was washed out with […] of PEM80 buffer (80 mM Pipes, 1 mM EGTA, 2 mM MgCl2, pH 6.8 with KOH) and the surface was blocked against non-specific microtubule binding by filling the chamber with blocking protein (0.5 mg/mL α-casein for dynein experiments and 1 mg/mL BSA for K560 experiments) in motor dilution buffer. After 2 minutes the chamber was perfused with 18 μL of reaction mix (PEM80, 40 mM KCl, blocking protein [1 mg/mL a-casein for dynein experiments; 1 mg/mL BSA for K560 experiments], 2 mM MgATP, 20 μM taxol, 0.1 μM rhodamine-labeled microtubules, oxygen depletion system [4 mM DTT, 2 mM glucose, 40 μg/mL glucose oxidase, 35 μg/mL catalase], 2.5% DMSO, and test compounds as appropriate). The flow chamber was then sealed with valap. After allowing the microtubules to bind to the surface for 5 minutes, the gliding microtubules were visualized by time-lapse fluorescence microscopy. Velocities were measured by kymography using Metamorph software (Molecular Devices), and the velocity for each microtubule was determined from the total distance during the time observed.
For washout experiments, the chamber was left unsealed after the initial reaction mix containing inhibitor was added. Microtubules were allowed to bind to the surface for 5 minutes, and then a time-lapse movie was acquired. The inhibitor was then washed out of the chamber by flowing in 20 μL of fresh reaction mix (PEM80, 40 mM KCl, 1 mg/mL α-casein, 2 mM MgATP, 20 μM taxol, oxygen depletion system, and 2.5% DMSO) without additional microtubules or inhibitor. The chamber was sealed, and additional time-lapse movies were acquired.

Molecules are shown by their SMILES.

Results on four compounds are retold here after patent publication US9145376B2, “Quinazolinone inhibitors of dynein” (The Rockefeller University, priority 2011, dated 2015).

T1 sequence (A0A3Q1NEU9 1-4657): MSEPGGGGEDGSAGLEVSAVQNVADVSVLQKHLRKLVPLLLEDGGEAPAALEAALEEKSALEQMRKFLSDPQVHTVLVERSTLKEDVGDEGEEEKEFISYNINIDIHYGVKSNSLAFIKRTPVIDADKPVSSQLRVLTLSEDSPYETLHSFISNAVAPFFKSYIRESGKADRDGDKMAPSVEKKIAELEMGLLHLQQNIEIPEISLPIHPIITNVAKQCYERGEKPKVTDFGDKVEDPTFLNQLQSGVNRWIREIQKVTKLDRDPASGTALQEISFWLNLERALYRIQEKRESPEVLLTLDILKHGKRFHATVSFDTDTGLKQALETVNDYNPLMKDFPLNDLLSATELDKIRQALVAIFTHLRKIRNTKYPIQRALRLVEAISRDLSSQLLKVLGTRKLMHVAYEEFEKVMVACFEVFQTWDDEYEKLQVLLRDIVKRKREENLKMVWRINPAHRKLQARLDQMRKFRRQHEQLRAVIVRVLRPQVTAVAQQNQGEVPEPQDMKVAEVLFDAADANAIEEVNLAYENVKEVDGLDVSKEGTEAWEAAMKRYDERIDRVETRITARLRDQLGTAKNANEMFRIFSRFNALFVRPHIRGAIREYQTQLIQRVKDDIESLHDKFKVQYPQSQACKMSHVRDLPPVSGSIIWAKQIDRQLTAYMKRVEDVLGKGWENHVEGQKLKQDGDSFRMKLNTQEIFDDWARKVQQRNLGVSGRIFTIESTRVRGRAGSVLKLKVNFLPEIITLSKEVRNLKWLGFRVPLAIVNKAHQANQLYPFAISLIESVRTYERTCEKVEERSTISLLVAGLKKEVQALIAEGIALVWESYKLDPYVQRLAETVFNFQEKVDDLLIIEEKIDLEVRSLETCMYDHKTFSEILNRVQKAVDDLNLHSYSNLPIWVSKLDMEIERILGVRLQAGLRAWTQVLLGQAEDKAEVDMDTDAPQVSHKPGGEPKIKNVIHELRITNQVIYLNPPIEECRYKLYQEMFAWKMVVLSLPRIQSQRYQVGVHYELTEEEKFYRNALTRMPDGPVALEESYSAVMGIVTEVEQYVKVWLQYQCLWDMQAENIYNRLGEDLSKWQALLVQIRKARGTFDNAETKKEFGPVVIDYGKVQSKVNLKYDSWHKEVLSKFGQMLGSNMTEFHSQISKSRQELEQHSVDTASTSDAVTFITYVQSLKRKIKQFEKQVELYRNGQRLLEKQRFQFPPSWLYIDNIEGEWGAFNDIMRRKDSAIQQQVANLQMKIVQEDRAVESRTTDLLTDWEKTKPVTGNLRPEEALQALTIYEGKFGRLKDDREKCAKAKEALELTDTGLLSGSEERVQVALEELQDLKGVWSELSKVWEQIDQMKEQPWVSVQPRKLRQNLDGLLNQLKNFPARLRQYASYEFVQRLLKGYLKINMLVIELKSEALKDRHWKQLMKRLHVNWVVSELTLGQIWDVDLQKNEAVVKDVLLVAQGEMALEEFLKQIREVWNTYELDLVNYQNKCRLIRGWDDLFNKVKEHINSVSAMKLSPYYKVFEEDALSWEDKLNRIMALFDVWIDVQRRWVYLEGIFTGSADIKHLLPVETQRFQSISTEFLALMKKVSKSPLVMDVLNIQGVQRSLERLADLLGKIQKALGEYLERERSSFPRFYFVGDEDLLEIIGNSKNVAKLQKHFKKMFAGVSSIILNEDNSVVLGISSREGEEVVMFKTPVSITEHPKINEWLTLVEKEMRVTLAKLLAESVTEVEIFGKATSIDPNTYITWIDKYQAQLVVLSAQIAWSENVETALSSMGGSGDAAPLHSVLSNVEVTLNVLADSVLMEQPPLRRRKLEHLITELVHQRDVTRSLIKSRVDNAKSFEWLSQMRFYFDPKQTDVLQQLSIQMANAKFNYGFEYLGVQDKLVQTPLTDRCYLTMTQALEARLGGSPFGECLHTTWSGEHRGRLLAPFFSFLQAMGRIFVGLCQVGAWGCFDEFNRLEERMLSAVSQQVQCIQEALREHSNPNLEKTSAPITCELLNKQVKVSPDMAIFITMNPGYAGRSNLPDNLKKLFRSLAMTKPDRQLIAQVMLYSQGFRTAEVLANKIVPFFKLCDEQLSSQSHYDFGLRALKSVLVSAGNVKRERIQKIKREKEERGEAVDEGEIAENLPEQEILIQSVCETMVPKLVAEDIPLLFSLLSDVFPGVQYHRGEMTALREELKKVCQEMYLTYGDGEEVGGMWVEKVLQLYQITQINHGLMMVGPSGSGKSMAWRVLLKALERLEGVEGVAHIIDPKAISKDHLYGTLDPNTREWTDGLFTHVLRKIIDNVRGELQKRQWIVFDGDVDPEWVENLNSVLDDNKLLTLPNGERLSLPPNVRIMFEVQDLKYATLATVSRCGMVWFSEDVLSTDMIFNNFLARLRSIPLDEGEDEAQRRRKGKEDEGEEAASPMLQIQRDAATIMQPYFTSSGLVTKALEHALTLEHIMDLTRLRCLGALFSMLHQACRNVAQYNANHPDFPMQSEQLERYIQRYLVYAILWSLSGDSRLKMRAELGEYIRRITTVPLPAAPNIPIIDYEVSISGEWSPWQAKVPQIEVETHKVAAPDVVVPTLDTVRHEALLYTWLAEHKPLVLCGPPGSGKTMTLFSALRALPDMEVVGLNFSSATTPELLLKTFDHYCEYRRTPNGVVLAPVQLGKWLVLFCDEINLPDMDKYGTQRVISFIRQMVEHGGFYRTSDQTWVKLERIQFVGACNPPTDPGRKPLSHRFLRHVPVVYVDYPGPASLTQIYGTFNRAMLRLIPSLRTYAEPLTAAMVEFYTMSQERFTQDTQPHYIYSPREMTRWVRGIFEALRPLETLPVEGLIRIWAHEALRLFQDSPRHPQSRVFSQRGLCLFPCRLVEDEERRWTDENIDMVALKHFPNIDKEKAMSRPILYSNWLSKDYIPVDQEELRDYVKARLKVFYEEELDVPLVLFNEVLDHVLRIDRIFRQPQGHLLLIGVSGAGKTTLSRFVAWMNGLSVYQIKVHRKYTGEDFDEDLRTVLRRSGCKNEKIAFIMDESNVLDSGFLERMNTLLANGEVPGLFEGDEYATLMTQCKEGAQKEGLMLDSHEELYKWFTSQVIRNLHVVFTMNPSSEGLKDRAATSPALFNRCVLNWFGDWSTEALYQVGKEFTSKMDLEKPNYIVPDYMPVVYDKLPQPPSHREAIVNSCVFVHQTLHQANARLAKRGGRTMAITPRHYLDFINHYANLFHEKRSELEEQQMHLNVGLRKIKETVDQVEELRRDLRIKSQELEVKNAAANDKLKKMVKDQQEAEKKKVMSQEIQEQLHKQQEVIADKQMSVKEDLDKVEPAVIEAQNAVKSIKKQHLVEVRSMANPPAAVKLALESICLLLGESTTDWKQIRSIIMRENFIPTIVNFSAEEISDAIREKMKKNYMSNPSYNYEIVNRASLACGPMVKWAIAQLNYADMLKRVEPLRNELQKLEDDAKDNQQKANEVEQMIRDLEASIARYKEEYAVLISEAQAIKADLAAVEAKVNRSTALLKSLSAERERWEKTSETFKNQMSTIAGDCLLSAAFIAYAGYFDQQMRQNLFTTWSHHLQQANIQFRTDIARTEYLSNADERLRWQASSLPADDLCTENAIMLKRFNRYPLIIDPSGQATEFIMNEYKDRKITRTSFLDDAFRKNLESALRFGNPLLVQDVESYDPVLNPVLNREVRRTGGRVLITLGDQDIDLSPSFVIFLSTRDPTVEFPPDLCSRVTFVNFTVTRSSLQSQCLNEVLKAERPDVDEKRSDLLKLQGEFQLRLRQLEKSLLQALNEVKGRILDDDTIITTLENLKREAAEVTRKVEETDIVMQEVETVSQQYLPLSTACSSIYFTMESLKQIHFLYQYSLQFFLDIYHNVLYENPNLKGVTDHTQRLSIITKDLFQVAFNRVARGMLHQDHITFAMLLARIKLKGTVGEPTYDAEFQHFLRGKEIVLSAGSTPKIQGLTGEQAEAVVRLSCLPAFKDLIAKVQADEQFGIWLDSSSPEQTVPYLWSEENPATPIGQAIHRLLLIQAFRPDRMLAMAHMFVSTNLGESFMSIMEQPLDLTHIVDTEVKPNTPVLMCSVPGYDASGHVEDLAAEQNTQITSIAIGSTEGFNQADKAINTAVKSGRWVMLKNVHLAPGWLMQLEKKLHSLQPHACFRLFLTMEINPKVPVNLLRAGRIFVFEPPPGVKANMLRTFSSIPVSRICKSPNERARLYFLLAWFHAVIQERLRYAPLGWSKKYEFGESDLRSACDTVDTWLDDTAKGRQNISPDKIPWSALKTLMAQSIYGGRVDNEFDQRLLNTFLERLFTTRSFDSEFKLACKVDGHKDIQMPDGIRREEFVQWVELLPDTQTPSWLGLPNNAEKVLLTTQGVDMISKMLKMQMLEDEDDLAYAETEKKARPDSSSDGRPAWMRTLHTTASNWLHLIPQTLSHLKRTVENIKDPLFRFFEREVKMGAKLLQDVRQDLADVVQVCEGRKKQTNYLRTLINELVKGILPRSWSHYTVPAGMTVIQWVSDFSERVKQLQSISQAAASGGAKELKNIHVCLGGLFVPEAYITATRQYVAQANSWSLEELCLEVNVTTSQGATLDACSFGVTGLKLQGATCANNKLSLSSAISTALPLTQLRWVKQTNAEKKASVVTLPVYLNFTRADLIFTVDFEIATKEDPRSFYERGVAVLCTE

Turning to `N#C/C(C(=O)c1ccccc1)=C1\NC(=O)c2ccccc2N1` [Example 16, 3-oxo-2-(4-oxo-3,4-dihydroquinazolin-2(1H)-ylidene)-3-phenylpropanenitrile], the “Basal and Shh-N-induced levels of ciliary Gli2” value in experiment [1] is “unchanged”. Also, the “dynein-dependent microtubule movement (gliding velocity)” value (“dynein-dependent microtubule movement” for short) in experiment [2] is listed as “minimal effects”.
One may read the IC50 as the concentration needed to halve the response being measured. `N#C/C(C(=O)c1ccc(Cl)cc1Cl)=C1\NC(=O)c2ccc(Cl)cc2N1` [Example 31, 2-(7-chloro-4-oxo-3,4-dihydroquinazolin-2(1H)-ylidene)-3-(2,4-dichlorophenyl)-3-oxo-propanenitrile]: the “basal Gli2 concentrations in the primary cilium” value in experiment [1] is on record as “increased basal Gli2 concentrations in this signaling organelle to levels comparable to that induced by Shh-N”. Further, in experiment [2], the “dynein-dependent microtubule movement” value is “at least five-fold” and the IC50 amounted to 40 µM.
Taken in the same sequence, the figures for `N#C/C(C(=O)c1ccc(Cl)cc1Cl)=C1\NC(=O)c2ccccc2N1` [Example 1, 3-(2,4-dichlorophenyl)-3-oxo-2-(4-oxo-3,4-dihydroquinazolin-2(1H)-ylidene)propanenitrile] were “increased basal Gli2 concentrations in this signaling organelle to levels comparable to that induced by Shh-N”, “at least five-fold” and 30 µM.
Turning to `N#C/C(C(=O)c1ccc(Cl)cc1)=C1\NC(=O)c2ccccc2N1` [Example 2, 3-(4-chlorophenyl)-3-oxo-2-(4-oxo-3,4-dihydroquinazolin-2(1H)-ylidene)propanenitrile], in experiment [1], the “Basal and Shh-N-induced levels of ciliary Gli2” value is “unchanged”. For the same compound, in experiment [2], the “dynein-dependent microtubule movement” value is “minimal effects”.
